According to EP4759807A1, “PROTEOLYSIS TARGETING CHIMERA COMPOUND FOR DEGRADING IRAK4 AND USE THEREOF” (Shenzhen Zhongge Biological Technology Co., Ltd., priority 2023, dated 2025):
pIC50: −log10 of the molar value.

Experiments:
hERG ion channel = target: T1, hERG ion channel (Homo sapiens, UniProt Q12809); test: Inhibitory effect on hERG ion channels (manual patch clamp); assay type: cell-based; conditions: HEK293 cells stably expressing hERG channels, read-out: hERG (IC50, manupatch)
T1 construct: host or cells: HEK293
Method: In this experiment, the inhibitory effect of the compound on the hERG ion channel was detected by a manual patch clamp electrophysiological method, and the cardiac safety was evaluated based on the single concentration inhibition rate or IC50 of the compound.
The cells used in this experiment were HEK293 cell lines transfected with hERG cDNA and stably expressing hERG channels (#60187, provided by BPS, P3-P23 generations were used for experimental research). The cells was cultured in a medium containing the following components: MEM medium, 10% (v/v) inactivated fetal bovine serum, 1 mM sodium pyruvate, 500 µg geneticin, 0.1 mM non-essential amino acids, 100 U penicillin-streptomycin. HEK293 hERG cells were grown in a culture flask containing the above culture solution and cultured in an incubator at 37°C and 5% CO2. […]
A manual patch clamp system (HEKA EPC-10 signal amplifier and digital conversion system, purchased from HEKA Electronics, Germany) was used to record whole-cell currents in electrophysiological experiments. […] After the hERG current recorded in the above steps reached stabilization under the continuous perfusion of extracellular solution in the recording chamber, different concentrations of the compound to be tested could be perfused until the inhibitory effect of the drug on the hERG current reached a stable state. […]

[1] = tested on: IFN-γ, IL-1β, IL-6, IL-10, IL-12p70, TNF-α and IL-23 secretion by hPBMC; test: Inhibition of LPS-induced secretion of multiple cytokines by human-derived PBMC (MSD detection); assay type: cell-based; conditions: 8 h compound, then LPS 2 ng/mL 16 h; compared with KT474
Method: Experiment materials: Human-derived peripheral blood mononuclear cells (hPBMC) were provided by Hemacare Donor Center.
Thawing and plating PBMCs: The frozen PBMC was removed from liquid nitrogen, thawed in a 37°C water bath kettle, then resuspended with 10 mL of complete medium, and centrifuged at 350 g at room temperature for 5 min, and the supernatant was discarded. The cells were resuspended with 5 mL of complete medium, and the cells were counted. The cells were diluted to 2 × 10^6/mL based on the counting results, and 0.1 mL (2 × 10^5 cells) was added to each well of the 96-well plate.
After uniform mixing, incubation was performed in an incubator at 37°C and 5% CO2 for 8 h.
LPS induction: After 8 h, 50 µL of LPS was added to all wells to a final concentration of 2 ng/mL. After uniform mixing, incubation was further performed in an incubator at 37°C and 5% CO2 for 16 h. […]
MSD detection: The buffer was added to the freeze-dried human inflammatory factor standard mixture to prepare a highest concentration standard (standard 1), and then serial 4-fold dilutions were performed and a standard with a concentration of 0 was prepared (a total of 10 concentrations). […] The plate was washed 3 times, and then 150 µL of 2× reading buffer was added and the plate was read using an MSD instrument.

IRAK4 = target: T2, IRAK4 (Mus musculus, UniProt Q8R4K2); conditions: Balb/c mice, 24 h
T2 sequence (Q8R4K2 1-459): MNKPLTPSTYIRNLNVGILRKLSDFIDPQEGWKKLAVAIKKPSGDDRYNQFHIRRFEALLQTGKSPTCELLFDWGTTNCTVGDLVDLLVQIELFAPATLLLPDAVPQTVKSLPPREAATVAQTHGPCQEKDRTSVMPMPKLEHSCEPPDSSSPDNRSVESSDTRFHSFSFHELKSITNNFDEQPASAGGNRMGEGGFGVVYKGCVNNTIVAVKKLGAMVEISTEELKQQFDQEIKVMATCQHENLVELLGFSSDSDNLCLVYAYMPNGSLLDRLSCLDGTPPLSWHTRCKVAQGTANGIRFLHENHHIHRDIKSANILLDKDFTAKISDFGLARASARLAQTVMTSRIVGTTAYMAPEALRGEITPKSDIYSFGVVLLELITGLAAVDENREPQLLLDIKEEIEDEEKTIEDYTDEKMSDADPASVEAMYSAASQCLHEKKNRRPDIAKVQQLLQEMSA
Method: Experiment materials: Female Balb/c mice, 6-8 weeks old, 18-20 grams were used in the experiment and were provided by Vital River Laboratory Animal Technology Co., Ltd.
Experimental method: The experiment started after the experimental animals were acclimated to the animal facility environment for 3 days. […] After 24 h, the animals were euthanized, and whole blood and spleen tissue were collected. The whole blood was temporarily placed on wet ice for subsequent PBMC extraction, and the spleen tissue was quickly placed in dry ice. PBMC extraction: 1.5 ml of red blood cell lysis buffer was added to the whole blood, and the obtained mixture was tapped with fingers for mixing, placed at room temperature in the dark for 5 min, and centrifuged at 400 g for 5 min, and the supernatant was discarded. The above steps were repeated twice. Then, 1.5 ml of DPBS was added and mixed uniformly. The mixture was centrifuged at 400 g for 5 min, and the obtained precipitate was PBMC. The PBMC was stored in a -80°C refrigerator for subsequent Western blot analysis. PBMC sample processing: The PBMC samples were placed on wet ice. 50 µL of lysis buffer was separately added to lyse the samples for 30 min, and the mixture was centrifuged at 12500 rpm for 15 min. The protein was quantified by the BCA method. […] The protein was quantified by BCA method. […]

T1 sequence (Q12809 whole entry): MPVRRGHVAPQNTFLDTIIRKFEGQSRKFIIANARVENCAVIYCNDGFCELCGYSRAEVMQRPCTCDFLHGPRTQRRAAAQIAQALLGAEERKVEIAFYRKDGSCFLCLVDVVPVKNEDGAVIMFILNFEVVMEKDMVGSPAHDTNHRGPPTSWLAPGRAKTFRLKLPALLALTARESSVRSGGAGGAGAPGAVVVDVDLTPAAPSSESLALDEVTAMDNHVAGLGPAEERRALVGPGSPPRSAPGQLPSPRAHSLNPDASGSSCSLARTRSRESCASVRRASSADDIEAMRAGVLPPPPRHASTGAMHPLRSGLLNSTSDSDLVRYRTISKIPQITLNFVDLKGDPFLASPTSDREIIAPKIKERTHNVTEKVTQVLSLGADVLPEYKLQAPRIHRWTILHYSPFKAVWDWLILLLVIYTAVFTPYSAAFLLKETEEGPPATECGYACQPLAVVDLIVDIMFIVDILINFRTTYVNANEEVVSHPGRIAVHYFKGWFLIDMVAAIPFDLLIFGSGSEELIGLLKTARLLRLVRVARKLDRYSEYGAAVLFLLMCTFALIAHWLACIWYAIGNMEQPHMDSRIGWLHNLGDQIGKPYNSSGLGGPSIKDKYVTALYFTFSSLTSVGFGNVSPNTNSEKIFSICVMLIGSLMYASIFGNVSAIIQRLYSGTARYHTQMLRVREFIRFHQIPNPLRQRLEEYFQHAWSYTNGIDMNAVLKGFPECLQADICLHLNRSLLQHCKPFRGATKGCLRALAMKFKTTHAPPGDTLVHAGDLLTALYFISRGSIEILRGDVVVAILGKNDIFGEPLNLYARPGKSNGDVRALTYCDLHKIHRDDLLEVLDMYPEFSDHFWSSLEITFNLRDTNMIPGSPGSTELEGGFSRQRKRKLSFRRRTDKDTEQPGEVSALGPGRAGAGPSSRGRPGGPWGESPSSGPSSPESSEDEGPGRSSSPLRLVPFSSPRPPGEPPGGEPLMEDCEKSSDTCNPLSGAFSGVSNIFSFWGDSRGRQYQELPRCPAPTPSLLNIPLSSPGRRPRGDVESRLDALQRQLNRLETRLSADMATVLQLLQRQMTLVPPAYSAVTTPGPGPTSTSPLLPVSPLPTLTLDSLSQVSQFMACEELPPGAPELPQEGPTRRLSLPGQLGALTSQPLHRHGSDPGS

With Cn1c(=O)n(C2CCC(=O)NC2=O)c2cccc(N3CCC(N4CCN(C[C@H]5CC[C@H](n6cc(-n7cc(-c8cnn9ccc(N%10CCC[C@H](O)C%10)nc89)nn7)c(C(F)F)n6)CC5)CC4)CC3)c21 (stereo partly shown) [Example 146] the pIC50 (hERG ion channel) was 5.15, the “ability to inhibit the secretion of multiple cytokines by human-derived PBMC” value [1] was “significantly better than that of positive reference KT474” and the “expression level of IRAK4 protein in the spleen and PBMC” value (IRAK4; single oral dose 10, 30, 100 mg/kg, compared with the blank control group) was “significantly inhibit”. For the same molecule, the “proteolysis ability for spleen IRAK4” value (IRAK4; single oral dose, three doses of 10, 30, and 100 mpk, compared with KT474) was “significantly superior to KT474”.
